Results published in ChEMBL document CHEMBL1671687, “Enhancement of biofilm formation by subinhibitory concentrations of macrolides in icaADBC-positive and -negative clinical isolates of Staphylococcus epidermidis” (2010).
In brackets after ≈: the same amount, converted by molar mass. Values belong to the compound of their own block, whether it stands above or below them.

How the values were obtained:
Format in all cases: functional
[1] = system: Staphylococcus epidermidis; assay: Enhancement of biofilm formation Staphylococcus epidermidis SW045 expressing icaA gene at subinhibitory concentration by microtiter plate assay; design: scale not given: the % may be the effect or the level left
[2] = system: Staphylococcus epidermidis; assay: Enhancement of biofilm formation Staphylococcus epidermidis SW061 expressing icaA gene at subinhibitory concentration by microtiter plate assay; design: scale not given: the % may be the effect or the level left
[3] = system: Staphylococcus epidermidis; assay: Enhancement of biofilm formation Staphylococcus epidermidis SW029 expressing icaA gene at subinhibitory concentration by microtiter plate assay; design: scale not given: the % may be the effect or the level left
[4] = system: Staphylococcus epidermidis; assay: Enhancement of biofilm formation Staphylococcus epidermidis SW098 expressing icaA gene at subinhibitory concentration by microtiter plate assay; design: scale not given: the % may be the effect or the level left
[5] = system: Staphylococcus epidermidis; assay: Enhancement of biofilm formation Staphylococcus epidermidis SW015 at subinhibitory concentration by microtiter plate assay; design: scale not given: the % may be the effect or the level left
[6] = system: Staphylococcus epidermidis; assay: Enhancement of biofilm formation Staphylococcus epidermidis SW104 expressing icaA gene at subinhibitory concentration by microtiter plate assay; design: scale not given: the % may be the effect or the level left
[7] = system: Staphylococcus epidermidis; assay: Enhancement of biofilm formation Staphylococcus epidermidis SW085 expressing icaA gene at subinhibitory concentration by microtiter plate assay; design: scale not given: the % may be the effect or the level left
[8] = system: Staphylococcus epidermidis; assay: Antimicrobial activity against Staphylococcus epidermidis SW027 expressing icaA gene assessed as enhancement of biofilm formation at subinhibitory concentration by microtiter plate assay; design: scale not given: the % may be the effect or the level left
[9] = system: Staphylococcus epidermidis; assay: Enhancement of biofilm formation Staphylococcus epidermidis SW088 at subinhibitory concentration by microtiter plate assay; design: scale not given: the % may be the effect or the level left
[10] = system: Staphylococcus epidermidis; assay: Enhancement of biofilm formation Staphylococcus epidermidis SW021 at subinhibitory concentration by microtiter plate assay; design: scale not given: the % may be the effect or the level left
[11] = system: Staphylococcus epidermidis; assay: Enhancement of biofilm formation Staphylococcus epidermidis SW032 expressing icaA gene at subinhibitory concentration by microtiter plate assay; design: scale not given: the % may be the effect or the level left
[12] = system: Staphylococcus epidermidis; assay: Enhancement of biofilm formation Staphylococcus epidermidis SW120 at subinhibitory concentration by microtiter plate assay; design: scale not given: the % may be the effect or the level left
[13] = system: Staphylococcus epidermidis; assay: Enhancement of biofilm formation Staphylococcus epidermidis SW058 expressing icaA gene at subinhibitory concentration by microtiter plate assay; design: scale not given: the % may be the effect or the level left
[14] = system: Staphylococcus epidermidis; assay: Antimicrobial activity against Staphylococcus epidermidis SW036
[15] = system: Staphylococcus epidermidis; assay: Enhancement of biofilm formation Staphylococcus epidermidis SW115 at subinhibitory concentration by microtiter plate assay; design: scale not given: the % may be the effect or the level left
[16] = system: Staphylococcus epidermidis; assay: Antimicrobial activity against Staphylococcus epidermidis SW029 expressing icaA gene
[17] = system: Staphylococcus epidermidis; assay: Enhancement of biofilm formation Staphylococcus epidermidis SW070 at subinhibitory concentration by microtiter plate assay; design: scale not given: the % may be the effect or the level left
[18] = system: Staphylococcus epidermidis; assay: Enhancement of biofilm formation Staphylococcus epidermidis SW099 at subinhibitory concentration by microtiter plate assay; design: scale not given: the % may be the effect or the level left
[19] = system: Staphylococcus epidermidis; assay: Enhancement of biofilm formation Staphylococcus epidermidis SW071 at subinhibitory concentration by microtiter plate assay; design: scale not given: the % may be the effect or the level left
[20] = system: Staphylococcus epidermidis; assay: Enhancement of biofilm formation Staphylococcus epidermidis SW126 expressing icaA gene at subinhibitory concentration by microtiter plate assay; design: scale not given: the % may be the effect or the level left
[21] = system: Staphylococcus epidermidis; assay: Enhancement of biofilm formation Staphylococcus epidermidis ATCC 35984 expressing icaA gene at subinhibitory concentration by microtiter plate assay; design: scale not given: the % may be the effect or the level left
[22] = system: Staphylococcus epidermidis; assay: Enhancement of biofilm formation Staphylococcus epidermidis SW067 expressing icaA gene at subinhibitory concentration by microtiter plate assay; design: scale not given: the % may be the effect or the level left
[23] = system: Staphylococcus epidermidis; assay: Enhancement of biofilm formation Staphylococcus epidermidis SW036 at subinhibitory concentration by microtiter plate assay; design: scale not given: the % may be the effect or the level left
[24] = system: Staphylococcus epidermidis; assay: Enhancement of biofilm formation Staphylococcus epidermidis SW082 at subinhibitory concentration by microtiter plate assay; design: scale not given: the % may be the effect or the level left

SMILES: CC[C@H]1OC(=O)[C@H](C)[C@@H](O[C@H]2C[C@@](C)(OC)[C@@H](O)[C@H](C)O2)[C@H](C)[C@@H](O[C@@H]2O[C@H](C)C[C@H](N(C)C)[C@H]2O)[C@](C)(OC)C[C@@H](C)C(=O)[C@H](C)[C@@H](O)[C@]1(C)O [CLARITHROMYCIN]
Activity [1]: 32.2% | Activity [2]: 46.3% | Activity [3]: 146.4% | Activity [4]: 112.8% | Activity [5]: 78.6% | Activity [6]: 51.5% | Activity [7]: 275.8% | Activity [8]: 62.3% | Activity [9]: 201.5% | Activity [10]: 54.6% | Activity [11]: 71.8% | Activity [12]: 50.6% | Activity [13]: 54.9% | MIC [14]: 16 µg/mL (≈ 21.4 µM) | Activity [15]: 164% | MIC [16]: > 128 µg/mL | Activity [17]: 155.6% | Activity [18]: 38.7% | Activity [19]: 147.2% | Activity [20]: 50.3% | Activity [21]: -3.9% | Activity [22]: 140.2% | Activity [23]: 292% | Activity [24]: 62.8%

MIC [14]: > 128 µg/mL | MIC [16]: > 128 µg/mL
SMILES: CC[C@H]1OC(=O)[C@H](C)[C@@H](O[C@H]2C[C@@](C)(OC)[C@@H](O)[C@H](C)O2)[C@H](C)[C@@H](O[C@@H]2O[C@H](C)C[C@H](N(C)C)[C@H]2O)[C@](C)(O)C[C@@H](C)CN(C)[C@H](C)[C@@H](O)[C@]1(C)O [AZITHROMYCIN]
Activity [1]: 33.4% | Activity [2]: 58.4% | Activity [3]: 157.9% | Activity [4]: 104% | Activity [5]: 57.3% | Activity [6]: 48.1% | Activity [7]: 298.3% | Activity [8]: 49.1% | Activity [9]: 117.2% | Activity [10]: 39.8% | Activity [11]: 71.8% | Activity [12]: 75.8% | Activity [13]: 37.6% | Activity [15]: 184.3% | Activity [17]: 92.3% | Activity [18]: 47% | Activity [19]: 277.8% | Activity [20]: 56.4% | Activity [21]: 2.5% | Activity [22]: 128.8% | Activity [23]: 289.2% | Activity [24]: 59.8%
